Laboratory results reported in paper PMC7069095, “A cell-permeable peptide-based PROTAC against the oncoprotein CREPT proficiently inhibits pancreatic cancer” (Theranostics, 2020).
Non-standard residues stand in square brackets, D forms with d. Residues, ends and D or L forms follow the SMILES beside them. No end group written: not given here. *: point of attachment. FITC = O=C1OC2(c3ccc(O)cc3Oc3cc(O)ccc32)c2ccc(NC(=S)*)cc21; Hyp = O=C(O)[C@@H]1C[C@@H](O)CN1; Ahx = NCCCCCC(=O)O

What was measured:
Panc-1 cells = test: Confocal fluorescence imaging of FITC labeled peptides in cells; type: cell-based; details: confocal microscope, 10 μM FITC labeled peptides, Panc-1 cells
Procedure: To examine whether PRTC could permeate into pancreatic cancer cells, we synthesized fluorescein isothiocyanate (FITC) labeled PRTC, PRTC-m, PRTC-v, PRTC-r (PRTC without RRRRK) as well as TAT (a widely used cell penetrating peptide, as a positive control).
Figure 3 Identification of the permeability of PRTC in Panc-1 cells. (A) Entry of FITC- labeled peptides into Panc-1 cells tested by flow cytometry. FITC-TAT is the positive control. Measurements were performed in triplicate. (B) Quantification of cellular uptake of Panc-1 cells treated with different concentrations of FITC-PRTC. (C) Confocal microscope images of Panc-1 cells treated with 10 μM FITC labeled peptides. Scale bars, 10 μm. (D) Confocal microscope images of Panc-1 cells treated with different dosages of FITC-PRTC. Scale bars, 10 μm.

[1] = biological target: T1, purified GST-CREPT protein (microscale thermophoresis and thermal shift assay) (UniProt Q9NQG5 1-326); test: MST; 100 nM FITC-labeled peptide kept constant, gradient dilutions of purified GST-CREPT; Microscale Thermophoresis NT.115, MO.AffinityAnalysis; details: both partners purified
T1 construct: CREPT (also named RPRD1B); it may be the same as m2 or m3; also called GST-tagged CREPT; purified CREPT proteins; source: purified
T1 sequence (looked up): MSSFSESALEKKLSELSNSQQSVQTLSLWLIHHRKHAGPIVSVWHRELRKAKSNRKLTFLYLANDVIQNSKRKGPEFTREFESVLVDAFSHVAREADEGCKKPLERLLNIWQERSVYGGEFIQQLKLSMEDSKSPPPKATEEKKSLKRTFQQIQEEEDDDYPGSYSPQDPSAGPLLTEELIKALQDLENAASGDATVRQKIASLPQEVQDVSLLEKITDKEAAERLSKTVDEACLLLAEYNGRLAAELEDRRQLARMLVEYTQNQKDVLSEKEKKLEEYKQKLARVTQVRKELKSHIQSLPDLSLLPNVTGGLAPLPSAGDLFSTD

[2] = biological target: T1, purified GST-CREPT protein (microscale …); test: thermal shift assay; 5.33 μM purified CREPT protein in 50 mM Tris-HCl pH 8.0, 150 mM NaCl, SYPRO Orange, peptide or deionized H2O added; 25 to 70 °C at 1 °C/min; details: both partners purified

Row | Molecule | localization of FITC labeled peptides in the cells (Panc-1 cells) | further results
1 | FITC-AHX-IYP (OH) AL-AHX-KDVPSEKEKKPEEYKQKPARV-RRRRK [FITC-PRTC-m, FITC labeled PRTC-m] | strong localization | 
2 | FITC-AHX-KDVLSEKEKKLEEYKQKLARV-RRRRK [FITC-PRTC-v, FITC labeled PRTC-v] | strong localization | 
3 | CC[C@H](C)[C@H](NC(=O)CCCCCNC(=S)Nc1ccc2c(c1)C(=O)OC21c2ccc(O)cc2Oc2cc(O)ccc21)C(=O)N[C@@H](Cc1ccc(O)cc1)C(=O)N1C[C@H](O)C[C@H]1C(=O)N[C@@H](C)C(=O)N[C@@H](CC(C)C)C(=O)NCCCCCC(=O)N[C@@H](CCCCN)C(=O)N[C@@H](CC(=O)O)C(=O)N[C@H](C(=O)N[C@@H](CC(C)C)C(=O)N[C@@H](CO)C(=O)N[C@@H](CCC(=O)O)C(=O)N[C@@H](CCCCN)C(=O)N[C@@H](CCC(=O)O)C(=O)N[C@@H](CCCCN)C(=O)N[C@@H](CCCCN)C(=O)N[C@@H](CC(C)C)C(=O)N[C@@H](CCC(=O)O)C(=O)N[C@@H](CCC(=O)O)C(=O)N[C@@H](Cc1ccc(O)cc1)C(=O)N[C@@H](CCCCN)C(=O)N[C@@H](CCC(N)=O)C(=O)N[C@@H](CCCCN)C(=O)N[C@@H](CC(C)C)C(=O)N[C@@H](C)C(=O)N[C@@H](CCCNC(=N)N)C(=O)N[C@H](C(=O)O)C(C)C)C(C)C [FITC-PRTC-r] ({FITC-Ahx}-IY[Hyp]AL[Ahx]KDVLSEKEKKLEEYKQKLARV-OH) | very weak localization | 
4 | {FITC-Ahx}-IY[Hyp]AL[Ahx]KDVLSEKEKKLEEYKQKLARVRRRRK (VHL ligand IYP(OH)AL; the P is trans-4-hydroxy-L-proline; followed by the AHX linker; CREPT ligand (CL): leucine-zipper-like motif of CREPT (RPRD1B), lysine 266 to valine 286; transmembrane transport pentapeptide; Peptide-based PROTAC: VHL ligand, AHX linker, CREPT ligand, RRRRK; also called FITC-labeled PRTC; source: synthetic peptide (ChinaPeptides Co., Ltd.), purified by HPLC) [FITC-PRTC] |  | Kd [1]: 340 nM
5 | IY[Hyp]AL[Ahx]KDVLSEKEKKLEEYKQKLARVRRRRK (VHL ligand IYP(OH)AL; the P is trans-4-hydroxy-L-proline; followed by the AHX linker; CREPT ligand (CL): leucine-zipper-like motif of CREPT (RPRD1B), lysine 266 to valine 286; transmembrane transport pentapeptide; The thermal shift assay names the peptide only as PRTC; also called cell-permeable peptide-based PROTAC against CREPT; source: synthetic peptide (ChinaPeptides Co., Ltd.), purified by …) [PRTC] |  | dTm (thermal shift) [2]: 6 °C
